From patent publication US11696917B2, “Agent enhancing antitumor effect using pyrazolo[3,4-d]pyrimidine compound” (TAIHO PHARMACEUTICAL CO., LTD., priority 2017, dated 2023)

Tested on: NCI-N87 (human stomach cancer)
Assay: Combination of Compound 1 and other antitumor agents (in vitro), CellTiter-Glo, median effect method
Type: cell-based
Experimental: The supplier of each reagent, the suppliers of tumor cell lines, the media used, and the numbers of cells to be inoculated are shown in the tables below.
The cells were inoculated at 20 μL/well to a 384-well culture plate (Corning Inc.). The plate inoculated with the cells were cultured in an incubator set to 37° C. and 5% CO2. On the day following inoculation, each of mixed solutions of Compound 1 and each other antitumor agent at varying combinations of concentrations was added to the cells. Specifically, 8 serial dilutions (including (0 nM)) of Compound 1 and 10 serial dilutions (including (0 nM)) of the other antitumor agent were prepared using Leibovitz's L-15 medium containing 10% FBS, or ATCC formulated RPMI-1640 medium containing 10% FBS. Drug solutions in which equal amounts of the respective serial dilutions of the compounds were dispensed were mixed at a ratio of 1:1 to prepare a total of 80 mixed drug solutions including every combination. Each of these mixed drug solutions was added at 5 μL/well (N=4) to the plate, followed by further culture for 3 days under conditions of 37° C. and 5% CO2.
Three days later, CellTiter-Glo™ 2.0 Reagent (Promega Corporation) was added thereto at 25 μL/well, and chemiluminescence was measured using a plate reader (EnSpire® Multimode Plate Reader, PerkinElmer Japan Co., Ltd.).
The enhancement of an effect by combined use of the drugs was evaluated according to a method known in the art (a method described in Trends Pharmacol. Sci., 4, 450-454, 1983 or Pharmacol Rev., 58 (3), 621-81, 2006).
An average value from 4 wells of each combination was calculated from the obtained data, and a cell survival rate normalized against a control supplemented with a medium containing a vehicle was calculated. A Fa (fraction of affect) value was calculated by subtracting the cell survival rate from 1. Median effect analysis software CalcuSyn 2.0 (CalcuSyn, Inc.) for calculation by the median effect method was used in the calculation of CI.
As for the combinations of the concentrations of both the drugs for calculating CI, a Fa value closer to 1 presumably means a concentration range in which one of the drugs had too strong an effect, and a Fa value closer to 0 presumably means a concentration range in which any of the drugs had too weak an effect. Since these concentration ranges were not appropriate for the discussion of a synergistic effect, combinations that satisfied 0.2 S Fa 0.8 were extracted from the combinations of the respective concentrations of Compound 1 and the other antitumor agent on the basis of the calculated Fa value.
An effect of combined use was determined as shown in the table below (Pharmacol Rev., 58 (3), p. 621-81, 2006).

[1] = Compound 1 0.137 nM + Cisplatin 2062 nM, ratio 1:15030, NCI-N87
[2] = Compound 1 0.137 nM + Gemcitabine 1.37 nM, ratio 1:10, NCI-N87
[3] = Compound 1 0.137 nM + Gemcitabine 4.12 nM, ratio 1:30, NCI-N87
[4] = Compound 1 0.137 nM + Gemcitabine 12.3 nM, ratio 1:90, NCI-N87
[5] = Compound 1 0.137 nM + Trifluridine 12346 nM, ratio 1:90000, NCI-N87
[6] = Compound 1 0.412 nM + Cisplatin 2062 nM, ratio 1:5010, NCI-N87
[7] = Compound 1 0.412 nM + Cisplatin 6185 nM, ratio 1:15030, NCI-N87
[8] = Compound 1 0.412 nM + FdUrd 4115 nM, ratio 1:10000, NCI-N87
[9] = Compound 1 0.412 nM + FdUrd 12346 nM, ratio 1:30000, NCI-N87
[10] = Compound 1 0.412 nM + FdUrd 37037 nM, ratio 1:90000, NCI-N87
[11] = Compound 1 0.412 nM + Trifluridine 1372 nM, ratio 1:3333, NCI-N87
[12] = Compound 1 0.412 nM + Trifluridine 4115 nM, ratio 1:10000, NCI-N87
[13] = Compound 1 0.412 nM + Trifluridine 12346 nM, ratio 1:30000, NCI-N87
[14] = Compound 1 0.412 nM + Trifluridine 37037 nM, ratio 1:90000, NCI-N87
[15] = Compound 1 1.24 nM + Cisplatin 6185 nM, ratio 1:5010, NCI-N87
[16] = Compound 1 1.24 nM + Cisplatin 18556 nM, ratio 1:15030, NCI-N87
[17] = Compound 1 1.24 nM + FdUrd 12346 nM, ratio 1:10000, NCI-N87
[18] = Compound 1 1.24 nM + FdUrd 37037 nM, ratio 1:30000, NCI-N87
[19] = Compound 1 1.24 nM + FdUrd 111111 nM, ratio 1:90000, NCI-N87
[20] = Compound 1 1.24 nM + Gemcitabine 1.37 nM, ratio 1:1.1, NCI-N87
[21] = Compound 1 1.24 nM + Gemcitabine 4.12 nM, ratio 1:3.3, NCI-N87
[22] = Compound 1 1.24 nM + Gemcitabine 12.3 nM, ratio 1:10, NCI-N87
[23] = Compound 1 1.24 nM + Gemcitabine 37.0 nM, ratio 1:30, NCI-N87
[24] = Compound 1 1.24 nM + Gemcitabine 111 nM, ratio 1:90, NCI-N87
[25] = Compound 1 1.24 nM + Paclitaxel 5.56 nM, ratio 1:4.5, NCI-N87
[26] = Compound 1 1.24 nM + Trifluridine 1372 nM, ratio 1:1111, NCI-N87
[27] = Compound 1 1.24 nM + Trifluridine 4115 nM, ratio 1:3333, NCI-N87
[28] = Compound 1 1.24 nM + Trifluridine 12346 nM, ratio 1:10000, NCI-N87
[29] = Compound 1 1.24 nM + Trifluridine 37037 nM, ratio 1:30000, NCI-N87
[30] = Compound 1 1.24 nM + Trifluridine 111111 nM, ratio 1:90000, NCI-N87
[31] = Compound 1 3.70 nM + Cisplatin 2062 nM, ratio 1:557, NCI-N87
[32] = Compound 1 3.70 nM + Cisplatin 6185 nM, ratio 1:1670, NCI-N87
[33] = Compound 1 3.70 nM + Cisplatin 18556 nM, ratio 1:5010, NCI-N87
[34] = Compound 1 3.70 nM + FdUrd 4115 nM, ratio 1:1111, NCI-N87
[35] = Compound 1 3.70 nM + FdUrd 12346 nM, ratio 1:3333, NCI-N87
[36] = Compound 1 3.70 nM + FdUrd 37037 nM, ratio 1:10000, NCI-N87
[37] = Compound 1 3.70 nM + FdUrd 111111 nM, ratio 1:30000, NCI-N87

## C=CC(=O)N1CCC[C@@H](n2nc(C(=O)Nc3ccc(CC(=O)N(C)C)c(C)c3C)c3c(N)ncnc32)C1 [Compound 1, (R)-1-(1-acryloylpiperidin-3-yl)-4-amino-N-(4-(2-(dimethylamino)-2-oxoethyl)-2,3-dimethylphenyl)-1H-pyrazolo[3,4-d]pyrimidine-3-carboxamide]
[1]
  CI: 0.62
  Fa: 0.39
[2]
  CI: 0.03
  Fa: 0.69
[3]
  CI: 0.37
  Fa: 0.68
[4]
  CI: 0.01
  Fa: 0.73
[5]
  CI: 0.26
  Fa: 0.43
[6]
  CI: 0.64
  Fa: 0.36
[7]
  CI: 0.57
  Fa: 0.55
[8]
  CI: 0.39
  Fa: 0.25
[9]
  CI: 0.46
  Fa: 0.30
[10]
  CI: 0.63
  Fa: 0.41
[11]
  CI: 0.35
  Fa: 0.26
[12]
  CI: 0.65
  Fa: 0.26
[13]
  CI: 0.38
  Fa: 0.41
[14]
  CI: 0.34
  Fa: 0.54
[15]
  CI: 0.40
  Fa: 0.60
[16]
  CI: 0.42
  Fa: 0.72
[17]
  CI: 0.58
  Fa: 0.33
[18]
  CI: 0.70
  Fa: 0.39
[19]
  CI: 0.39
  Fa: 0.54
[20]
  CI: 0.07
  Fa: 0.70
[21]
  CI: 0.06
  Fa: 0.71
[22]
  CI: 0.04
  Fa: 0.77
[23]
  CI: 0.05
  Fa: 0.73
[24]
  CI: 0.05
  Fa: 0.72
[25]
  CI: 0.45
  Fa: 0.50
[26]
  CI: 0.78
  Fa: 0.24
[27]
  CI: 0.71
  Fa: 0.31
[28]
  CI: 0.37
  Fa: 0.48
[29]
  CI: 0.41
  Fa: 0.55
[30]
  CI: 0.68
  Fa: 0.59
[31]
  CI: 0.58
  Fa: 0.54
[32]
  CI: 0.38
  Fa: 0.67
[33]
  CI: 0.42
  Fa: 0.75
[34]
  CI: 0.82
  Fa: 0.39
[35]
  CI: 0.58
  Fa: 0.47
[36]
  CI: 0.41
  Fa: 0.56
[37]
  CI: 0.60
  Fa: 0.57
